Source: article PMC4036672 (Analytical biochemistry, 2014)
Where a SMILES comes first, the peptide text is derived from it.

Molecular target: T1, Neuropilin-2 (Nrp2) (Homo sapiens, UniProt O60462)
T1 sequence (O60462 276-595): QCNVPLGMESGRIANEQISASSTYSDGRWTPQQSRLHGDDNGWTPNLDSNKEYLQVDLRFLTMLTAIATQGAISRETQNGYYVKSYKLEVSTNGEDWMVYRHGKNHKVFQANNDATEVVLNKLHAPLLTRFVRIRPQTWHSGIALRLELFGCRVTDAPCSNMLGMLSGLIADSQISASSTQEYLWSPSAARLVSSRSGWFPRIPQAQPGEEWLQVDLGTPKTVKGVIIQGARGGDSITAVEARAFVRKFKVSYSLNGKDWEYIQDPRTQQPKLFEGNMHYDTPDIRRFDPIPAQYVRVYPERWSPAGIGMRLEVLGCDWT
Experiment: competition plate assay: AP-VEGF-C binding to immobilised purified Nrp2-b1b2

IC50 [µM]	SMILES
113	Oc1cc2c(cc1O)[C@H]1c3ccccc3CN[C@@H]1CC2 (racemic) [Dihydrexidine]
43	CC(C)C[C@H](NC(=O)[C@H](Cc1c[nH]c2ccccc12)NC(=O)[C@@H](NC(=O)[C@H](C)N)[C@@H](C)O)C(=O)N1CCC[C@H]1C(=O)N1CCC[C@H]1C(=O)N[C@@H](CCCNC(=N)N)C(=O)O [ATWLPPR] (H-ATWLPPR-OH)
66	COc1cc(C(=O)NS(=O)(=O)c2ccccc2C)ccc1Cc1cn(C)c2ccc(NC(=O)OC3CCCC3)cc12 [Zafirlukast]
